For data set [1], the target named is T1, IKZF3 (Homo sapiens, UniProt Q96SW2+Q9UKT9).
T1 construct: endogenous in cells; host or cells: L363 cells
Kind of data set: Degradation of IKZF3 in L363 cells by Western blot. Type of data set: cell-based. As to conditions: compound 1000 nM, 16 hours. The procedure: (§1) The 24-well cell culture plate was inoculated with 0.95 mL L363 cells (Nanjing Co-bioer) per well with a cell density of 6×10^5 cells/well. The cell plate was placed in a 5% carbon dioxide incubator and cultured at 37° C. for 8 hours, then 50 μL of compound solution was added. The final concentration of the compound was 1000 nM. After continuing to culture for 16 hours, the cells were collected into a 1.5 mL centrifuge tube and centrifuged at 3000 rpm and 4° C. for 5 minutes. Cell precipitation was washed twice with 1×DPBS, resuspended cells were lysed with 100 μL lysate (cell lysate was Western and IP cell lysate (Beyotime), supplemented with 1 mM mixture of phenylmethylsulfonyl fluoride and protease inhibitor (Beyotime)), left on ice for 30 minutes, then centrifuged at 14000 g at 4° C. for 10 minutes, and the supernatant was taken to detect IKZF1 and IKZF3 protein level by Western blot.
(§2) The total protein concentration in the supernatant of cell lysis was determined by BCA protein quantitative kit (Tiangen). According to the concentration of total protein detected by BCA, the supernatant was adjusted to […] with PBS and 5×SDS-PAGE protein loading buffer (Beyotime), bathed in water at 100° C. for 10 minutes, then placed in ice bath for 5 minutes, centrifuged at 14000 g and 4° C. for 5 minutes, and then collected as WB loading sample. Prefabricated glue (KeyGEN) was used for protein electrophoresis with a loading amount of 10 μL (total protein 2 μg). After Tris-MOPS-SDS electrophoresis solution (Adamas), 120V constant pressure electrophoresis was performed. After electrophoresis, the protein on the adhesive strip was transferred to PVDF membrane with a constant current of […] for 50 minutes. After the membrane was transferred, the membrane was incubated in 5% bovine serum albumin solution for 2 hours at room temperature. After blocking, PVDF membranes were incubated with IKZF1 primary antibody (CST) and IKZF3 primary antibody (Abcam) overnight at 4°, the membranes were washed with TBST buffer (2.4 g Tris, 8.8 g NaCl, 1.5 mL Tween 20, pH adjusted to 7.4, constant volume to 1 L) for 30 minutes, incubated with secondary antibody (Abcam) for 2 hours at room temperature, finally incubated with Clarity Western ECL Substrate (BIO-RAD) for 5 minutes for luminescence development, chemiluminescence imaging system (Clinx, chemiScope 6200 Touch) was used for development and protein mapping photography. The protein map was analyzed by Clinx chemiluminescence analysis software for grayscale values. Using the formula: grayscale correction value=(target protein grayscale value/corresponding internal reference grayscale value)×10^3, the grayscale correction value of each sample was calculated. The degradation rate was calculated by comparing with the grayscale correction value of the control group.

The target in data set [2] is T2, IKZF1 (Homo sapiens, UniProt Q13422+Q96SW2).
T2 construct: endogenous in cells; host or cells: L363 cells
Kind of data set: Degradation of IKZF1 in L363 cells by Western blot. Type of data set: cell-based. Conditions: compound 1000 nM, 16 hours. As for the experimental part:
as §1, §2

The target in data set [3] is T3, IRAK4 kinase protein in THP-1 cells (Homo sapiens, UniProt Q9NWZ3).
T3 construct: endogenous in cells; host or cells: THP-1 cells
T3 sequence (Q9NWZ3 1-460): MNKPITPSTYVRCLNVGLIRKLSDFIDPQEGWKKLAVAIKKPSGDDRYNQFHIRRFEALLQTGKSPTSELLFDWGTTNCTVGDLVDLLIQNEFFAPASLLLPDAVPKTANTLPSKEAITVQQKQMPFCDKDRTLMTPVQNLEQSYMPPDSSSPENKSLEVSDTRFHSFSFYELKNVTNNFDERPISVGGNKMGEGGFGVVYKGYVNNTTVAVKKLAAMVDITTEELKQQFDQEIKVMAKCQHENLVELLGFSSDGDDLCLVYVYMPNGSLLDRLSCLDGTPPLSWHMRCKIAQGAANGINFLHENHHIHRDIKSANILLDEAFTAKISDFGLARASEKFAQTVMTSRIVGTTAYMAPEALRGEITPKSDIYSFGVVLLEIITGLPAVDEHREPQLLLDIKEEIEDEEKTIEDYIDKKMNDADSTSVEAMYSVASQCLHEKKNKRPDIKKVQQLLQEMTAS
As to the kind of experiment: Degradation of IRAK4 in THP-1 cells by Western Blot. The format is cell-based. As to conditions: 24 hours; for Dmax / DC50: IRAK4 degradation in THP-1 cells; for Dmax: read-out: WB Dmax; for WB D(%) (300 nM) / WB D(%) (1000 nM): degradation percentage of IRAK4 in THP-1 cells; for WB D(%) (300 nM): compound 300 nM; for WB D(%) (1000 nM): compound 1000 nM; for DC50: read-out: WB DC50. As for the experimental part:
Each well of the 24-well cell culture plate was inoculated with 0.95 mL THP-1 cells (stem cell bank of Chinese academy of sciences) with a cell density of 5×10^5 cells/well. The cell plate was placed in a 5% carbon dioxide incubator and cultured overnight at 37° C., then 50 μL compound in dimethyl sulfoxide was added. The final concentration of the compound was in the range of 1-3000 nM. After continuous cultivation for 24 hours, the cells were collected into a 1.5 mL centrifuge tube, centrifuged at 1000 rpm and 4° C. for 5 minutes. Cell precipitation was washed twice with 1×DPBS, resuspended cells were lysed with 200 μL lysate (cell lysate was Western and IP cell lysate (Beyotime), supplemented with 1 mM mixture of phenylmethylsulfonyl fluoride and protease inhibitor (Beyotime)), left on ice for 30 minutes, then centrifuged at 14000 g at 4° C. for 10 minutes, and the supernatant was taken to detect IRAK4 protein level by Western blot.
The total protein concentration in the supernatant of cell lysis was determined by BCA protein quantitative kit (Tiangen). According to the concentration of total protein detected by BCA, the supernatant was adjusted to […] with PBS and 5×SDS-PAGE protein loading buffer (Beyotime), bathed in water at 100° C. for 10 minutes, then placed in ice bath for 5 minutes, centrifuged at 14000 g and 4° C. for 5 minutes, and then collected as WB loading sample. Prefabricated glue (KeyGEN) was used for protein electrophoresis with a loading amount of 10 μL (total protein 2 μg). After Tris-MOPS-SDS electrophoresis solution (Adamas), 120V constant pressure electrophoresis was performed. After electrophoresis, the protein on the adhesive strip was transferred to PVDF membrane with a constant current of […] for 50 minutes. After the membrane was transferred, the membrane was added in 1×QuickBlock blocking buffer (Beyotime) and incubated for 30 minutes at room temperature. After blocking, PVDF membranes were incubated with IRAK4 primary antibody (Abcam) overnight at 4°, the membranes were washed with TBST buffer (2.4 g Tris, 8.8 g NaCl, 1.5 mL Tween 20, pH adjusted to 7.4, constant volume to 1 L) for 30 minutes, incubated with secondary antibody (Abcam) for 2 hours at room temperature, finally incubated with Clarity Western ECL Substrate (BIO-RAD) for 5 minutes for luminescence development, chemiluminescence imaging system (Clinx, chemiScope 6200 Touch) was used for development and protein mapping photography. The protein map was analyzed by Clinx chemiluminescence analysis software for grayscale values. Using the formula: grayscale correction value=(target protein grayscale value/corresponding internal reference grayscale value)×[…], the grayscale correction value of each sample was calculated. The degradation rate was calculated by comparing with the grayscale correction value of the control group. Furthermore, DC50 and Dmax values of the compound were obtained by the nonlinear curve fitting with the logarithmic concentration-inhibition rate by GraphPad Prism 7.

Data set [4] can be described thus: Pharmacokinetic study in mice. Type of data set: in vivo, SD mice. The procedure:
The following experimental scheme was used to study the pharmacokinetic behavior of the compound of the present invention in mice and evaluate its pharmacokinetic characteristics.
Experimental scheme: 3 healthy SD mice, male, weighing […], were given 100 mg/kg compound by gavage with a volume of 10 mL/kg, prepared with […] (w/v). Before the test, they were fasted for 12 hours and freely drank water. Food was uniformly consumed 4 h after administration.
Three healthy SD mice, male, weighing […], were given 1 mg/kg compound intravenously with a volume of 5 mL/kg, prepared with 5% DMSO/15% solutol %80% PBS (w/v). Before the test, they were fasted for 12 hours and freely drank water. Food was uniformly consumed 4 h after administration.
0.1 mL of venous blood was taken through the submaxillary venous plexus of mice at 0.08 h, 0.25 h, 0.5 h, 1 h, 2 h, 4 h, 8 h, 24 h after gavage administration and 0.08 h, 0.25 h, 0.5 h, 1 h, 2 h, 4 h, 8 h, 24 h after intravenous administration, placed in a heparin test tube, centrifuged at 11000 rpm for 5 min, and plasma was separated, the concentration of compounds in plasma was determined by liquid chromatography-tandem mass spectrometry.

For data set [5], the target named is T4, IRAK4 kinase (Homo sapiens, UniProt Q9NWZ3).
T4 sequence (Q9NWZ3 1-460): T3 sequence (Q9NWZ3 1-460)
Kind of data set: IRAK4 kinase activity test (KinEASE-STK HTRF kit). The format is biochemical. Conditions: IRAK4 kinase inhibition, 7 μM ATP, 37° C. 120 min. As for the experimental part:
KinEASE-STK Si serine/threonine kinase kit (Cisbio) was used to detect the inhibitory effect of the compound on IRAK4 kinase activity. The specific method was: the compound was dissolved in dimethyl sulfoxide, and then it was diluted with the buffer solution of the kit by equal gradient to make the final concentration range of the tested compound in the reaction system 10000 nM-0.038 nM, then 2.5 nM kinase, 1 μM biotinylated polypeptide substrate and 7 μM adenosine triphosphate (ATP) were added in sequence and incubated at 37° C. for 120 min. Subsequently, anti-phosphorylated serine/threonine antibody coupled with europium element compound and modified XL665 streptavidin were added to the reaction system to terminate the reaction. After incubating at room temperature for 1 h, the fluorescence intensity of each well at the emission wavelength of 620 nm and 665 nm and the excitation wavelength of 337 nm was determined in HTRF mode on the microplate reader EnVision (PerkinElmer), the ratio value was calculated using the formula Ratio=(665 nm/620 nm)×10^4. By comparing with the fluorescence intensity ratio of the control group, the inhibition rate of the compound at each concentration was calculated, and then the IC50 value of the compound was obtained by fitting the nonlinear curve with the logarithmic concentration-inhibition rate by GraphPad Prism 7.

Setting [6] is: male, SD, mouse, po, gavage administration 100 mg/kg, plasma.

T2 sequence (Q13422 whole entry): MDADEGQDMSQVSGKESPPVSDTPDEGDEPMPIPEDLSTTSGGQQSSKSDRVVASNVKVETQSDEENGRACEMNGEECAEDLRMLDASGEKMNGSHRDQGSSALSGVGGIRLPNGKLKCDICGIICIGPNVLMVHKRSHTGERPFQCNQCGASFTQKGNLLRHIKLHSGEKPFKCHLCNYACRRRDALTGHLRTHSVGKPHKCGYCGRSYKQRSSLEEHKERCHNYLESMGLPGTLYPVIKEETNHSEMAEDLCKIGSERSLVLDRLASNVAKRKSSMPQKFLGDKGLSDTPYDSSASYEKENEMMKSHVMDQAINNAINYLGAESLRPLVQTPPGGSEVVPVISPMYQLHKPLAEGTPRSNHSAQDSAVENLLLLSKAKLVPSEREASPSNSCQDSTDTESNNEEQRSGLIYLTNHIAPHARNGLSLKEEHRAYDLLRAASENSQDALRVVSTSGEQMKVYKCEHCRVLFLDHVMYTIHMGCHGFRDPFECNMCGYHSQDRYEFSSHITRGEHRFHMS
T2 sequence (Q96SW2 whole entry): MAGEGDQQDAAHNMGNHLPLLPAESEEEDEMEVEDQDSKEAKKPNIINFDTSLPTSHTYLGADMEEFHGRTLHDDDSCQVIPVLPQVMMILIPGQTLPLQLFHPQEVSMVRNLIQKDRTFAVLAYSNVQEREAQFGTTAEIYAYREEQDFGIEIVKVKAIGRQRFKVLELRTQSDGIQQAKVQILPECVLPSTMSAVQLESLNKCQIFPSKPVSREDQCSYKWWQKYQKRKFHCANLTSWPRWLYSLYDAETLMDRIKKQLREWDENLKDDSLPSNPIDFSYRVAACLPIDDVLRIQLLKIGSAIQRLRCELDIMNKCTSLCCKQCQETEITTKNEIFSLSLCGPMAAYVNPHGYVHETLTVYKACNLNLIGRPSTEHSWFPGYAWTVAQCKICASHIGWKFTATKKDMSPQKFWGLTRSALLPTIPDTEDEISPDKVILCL
T2 sequence (Q16531 whole entry partner): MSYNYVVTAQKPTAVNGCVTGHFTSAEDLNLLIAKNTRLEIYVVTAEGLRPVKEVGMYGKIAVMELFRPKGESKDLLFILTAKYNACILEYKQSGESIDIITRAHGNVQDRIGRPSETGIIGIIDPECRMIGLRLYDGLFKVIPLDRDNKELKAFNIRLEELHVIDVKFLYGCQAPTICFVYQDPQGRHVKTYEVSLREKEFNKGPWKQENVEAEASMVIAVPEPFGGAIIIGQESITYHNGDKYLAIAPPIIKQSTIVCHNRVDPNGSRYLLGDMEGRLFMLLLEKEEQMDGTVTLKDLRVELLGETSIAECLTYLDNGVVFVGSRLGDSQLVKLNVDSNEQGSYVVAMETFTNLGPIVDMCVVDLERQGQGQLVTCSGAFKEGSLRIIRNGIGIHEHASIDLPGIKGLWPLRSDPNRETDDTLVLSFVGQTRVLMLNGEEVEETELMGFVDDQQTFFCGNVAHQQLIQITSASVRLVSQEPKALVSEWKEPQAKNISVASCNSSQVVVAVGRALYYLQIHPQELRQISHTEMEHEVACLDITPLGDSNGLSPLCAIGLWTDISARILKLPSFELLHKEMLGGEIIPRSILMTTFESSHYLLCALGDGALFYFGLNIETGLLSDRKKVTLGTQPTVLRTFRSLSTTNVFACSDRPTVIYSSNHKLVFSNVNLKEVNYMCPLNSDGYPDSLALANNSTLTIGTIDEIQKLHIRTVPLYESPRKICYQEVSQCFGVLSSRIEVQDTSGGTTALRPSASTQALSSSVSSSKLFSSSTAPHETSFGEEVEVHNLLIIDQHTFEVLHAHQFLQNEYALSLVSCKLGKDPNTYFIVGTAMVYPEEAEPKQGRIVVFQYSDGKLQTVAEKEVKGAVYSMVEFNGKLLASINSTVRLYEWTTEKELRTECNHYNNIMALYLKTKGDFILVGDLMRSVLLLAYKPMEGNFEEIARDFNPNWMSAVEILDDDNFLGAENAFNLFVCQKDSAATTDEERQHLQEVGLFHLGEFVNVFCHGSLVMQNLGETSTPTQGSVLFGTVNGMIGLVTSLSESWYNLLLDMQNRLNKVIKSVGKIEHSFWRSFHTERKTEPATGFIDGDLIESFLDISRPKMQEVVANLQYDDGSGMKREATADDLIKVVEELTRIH
T1 sequence (Q9UKT9 whole entry): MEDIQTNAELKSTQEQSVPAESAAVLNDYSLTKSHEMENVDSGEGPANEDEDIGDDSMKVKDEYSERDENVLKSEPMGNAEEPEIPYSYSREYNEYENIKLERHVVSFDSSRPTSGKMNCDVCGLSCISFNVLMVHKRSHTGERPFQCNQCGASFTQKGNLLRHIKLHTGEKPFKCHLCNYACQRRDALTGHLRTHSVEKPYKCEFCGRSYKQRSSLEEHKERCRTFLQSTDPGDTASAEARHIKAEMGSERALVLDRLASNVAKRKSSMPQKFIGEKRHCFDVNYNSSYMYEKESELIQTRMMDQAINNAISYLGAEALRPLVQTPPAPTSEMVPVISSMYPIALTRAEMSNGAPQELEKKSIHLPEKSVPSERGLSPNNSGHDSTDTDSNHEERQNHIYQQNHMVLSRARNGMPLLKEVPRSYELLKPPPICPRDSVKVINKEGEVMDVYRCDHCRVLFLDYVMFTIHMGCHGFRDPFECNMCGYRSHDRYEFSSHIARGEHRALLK
T1 sequence (Q96SW2 whole entry): as the sequence (Q96SW2 whole entry) above
T1 sequence (Q16531 whole entry partner): as the sequence (Q16531 whole entry partner) above

Regarding `COc1cc2nn(C3CCN(CC4CCN(CCOc5ccc6c(c5)C(=O)N(C5CCC(=O)NC5=O)C6=O)CC4)CC3)cc2cc1NC(=O)c1cccc(C(F)(F)F)n1` (centres unmarked) [Control group 2, N-(2-(1-((1-(2-((2-(2,6-dioxopiperidin-3-yl)-1,3-dioxoisoindol-5-yl)oxy)ethyl)piperidin-4-yl)methyl)piperidin-4-yl)-6-methoxy-2H-indazol-5-yl)-6-(trifluoromethyl) pyridinecarboxamide, reference compound], the “IKZF3 degradation rate (%)” value in data set [1] was 71.2 ± 5.7%. In addition, the “IKZF1 degradation rate (%)” value in data set [2] came to 47.5 ± 9.7%. For the same compound, in data set [3], the Dmax was 85.1%, the “WB D(%) (300 nM)” value was determined as 79.7% and the “WB D(%) (1000 nM)” value was determined as 85.7%. In data set [4] (intravenous injection 1 mg/kg), this compound returned a CL_pred of 91.7 mL/min/kg and a Vss_pred of 109.4 L/kg. In addition, the AUC(0-t) in data set [4] (male, SD, mouse, intravenous injection 1 mg/kg, plasma) worked out at 122 ng·h/mL. The compound also returned a bioavailability in data set [4] (male, SD, mouse, plasma, po, gavage 100 mg/kg vs intravenous 1 mg/kg) of 14%. Moreover, in data set [4] (setting [6]), the AUC(0-t) was 1720 ng·h/mL and the highest level (Cmax) was 150 ng/mL.
For the compound `CN(CC1CCN(c2cccc3c2C(=O)N(C2CCC(=O)NC2=O)C3=O)CC1)C[C@H]1CC[C@H](n2cc3cc(NC(=O)c4cccc(C(F)(F)F)n4)c(C(C)(C)O)cc3n2)CC1` (some centres unmarked) [Control group 3, N-(2-((1r,4r)-4-((((1-(2-(2,6-dioxopiperidin-3-yl)-1,3-dioxoisoindolin-4-yl)piperidin-4-yl)methyl)(methyl)amino)methyl)cyclohexyl)-6-(2-hydroxyprop-2-yl)-2H-indazol-5-yl)-6-(trifluoromethyl) pyridinecarboxamide, reference compound], the “IKZF3 degradation rate (%)” value in data set [1] was 92.8 ± 5.0%. In addition, the “IKZF1 degradation rate (%)” value in data set [2] was determined as 97.2 ± 2.6%.
Take `CC(C)(O)c1cc2nn(C3CCN(CCN4CCN(c5ccc6c(c5)C(=O)N(C5CCC(=O)NC5=O)C6=O)CC4)CC3)cc2cc1NC(=O)c1cccc(C(F)(F)F)n1` (centres unmarked) [Example 4, N-(2-(1-(2-(4-(2-(2,6-dioxopiperidin-3-yl)-1,3-dioxoisoindolin-5-yl)piperazin-1-yl)ethyl)piperidin-4-yl)-6-(2-hydroxyprop-2-yl)-2H-indazol-5-yl)-6-(trifluoromethyl) pyridinecarboxamide]: the “IKZF3 degradation rate (%)” value in data set [1] is −4.5 ± 2.9%. Besides, in data set [2], the “IKZF1 degradation rate (%)” value stood at 4.3 ± 0.8%. Besides, in data set [3], the DC50 came out at 0.0017 µM, the Dmax is 99.9%, the “WB D(%) (300 nM)” value is reported as 99.5% and the “WB D(%) (1000 nM)” value was found to be 99.9%. The same compound yielded an IC50 in data set [5] of 0.0178 µM.
`CC(C)(O)c1cc2nn(C3CCN(CCC4CCN(c5ccc6c(c5)C(=O)N(C5CCC(=O)NC5=O)C6=O)CC4)CC3)cc2cc1NC(=O)c1cccc(C(F)(F)F)n1` (centres unmarked) [Example 5, N-(2-(1-(2-(1-(2-(2,6-dioxopiperidin-3-yl)-1,3-dioxoisoindolin-5-yl)piperidin-4-yl)ethyl)piperidin-4-yl)-6-(2-hydroxyprop-2-yl)-2H-indazol-5-yl)-6-(trifluoromethyl) pyridinecarboxamide]: the “IKZF3 degradation rate (%)” value in data set [1] is given as 22.4 ± 6.6%. Further, the “IKZF1 degradation rate (%)” value in data set [2] was found to be 18.8 ± 2.7%. Moreover, in data set [3], the DC50 was determined as 0.0121 µM, the Dmax was found to be 92.4%, the “WB D(%) (300 nM)” value worked out at 91.3% and the “WB D(%) (1000 nM)” value stood at 89.5%. Moreover, in data set [5], the IC50 was 0.0411 µM.
In the case of `Nc1cccc2c1C(=O)N(C1CCC(=O)NC1=O)C2=O` (centres unmarked) [Pomalidomide, reference compound], in data set [1], the “IKZF3 degradation rate (%)” value was found to be 98.6 ± 0.6%. In data set [2], the “IKZF1 degradation rate (%)” value stood at 99.7 ± 0.2%.

The values above are taken from patent publication US12624019B2, “Indazole derivative, and preparation method therefor and use thereof” (Leadingtac Pharmaceutical (Shaoxing) Co., Ltd., priority 2020, dated 2026).
